# Test results: ChEMBL document CHEMBL1142979, “Nonprenylated rotenoids, a new class of potent breast cancer resistance protein inhibitors” (J Med Chem, 2007)
# Legend:
# Assay type in all cases: cell-based
# BCRP (ABCG2) = target: T1, BCRP (ABCG2) (Homo sapiens, UniProt Q9UNQ0); assay: Inhibition of BCRP expressed in human HEK293 cells assessed as maximal mitoxantrone accumulation at 20 uM relative control; details: HEK293 cells that express BCRP, probe mitoxantrone, read-out: Activity
# T1 sequence (Q9UNQ0 whole entry): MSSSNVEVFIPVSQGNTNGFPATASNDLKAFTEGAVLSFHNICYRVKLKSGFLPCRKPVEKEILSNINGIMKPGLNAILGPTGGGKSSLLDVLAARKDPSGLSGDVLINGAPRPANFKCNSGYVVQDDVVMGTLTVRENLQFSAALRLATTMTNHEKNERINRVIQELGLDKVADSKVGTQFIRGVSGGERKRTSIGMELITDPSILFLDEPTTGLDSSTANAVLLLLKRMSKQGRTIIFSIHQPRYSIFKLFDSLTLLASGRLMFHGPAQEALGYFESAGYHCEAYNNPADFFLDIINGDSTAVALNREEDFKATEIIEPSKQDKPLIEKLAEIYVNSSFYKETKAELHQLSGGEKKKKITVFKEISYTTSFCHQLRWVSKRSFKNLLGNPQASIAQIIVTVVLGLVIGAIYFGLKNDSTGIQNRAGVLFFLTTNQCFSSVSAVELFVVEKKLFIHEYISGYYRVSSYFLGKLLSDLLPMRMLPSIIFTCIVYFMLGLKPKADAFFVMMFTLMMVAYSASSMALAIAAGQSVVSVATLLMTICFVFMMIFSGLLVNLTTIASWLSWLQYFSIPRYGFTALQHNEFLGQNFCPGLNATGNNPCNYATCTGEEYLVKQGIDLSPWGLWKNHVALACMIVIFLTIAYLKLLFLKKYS
# [1] = target: T2, Broad substrate specificity ATP-binding cassette transporter ABCG2 (Homo sapiens, UniProt Q9UNQ0); assay: Inhibition of BCRP expressed in human HEK293 cells assessed as maximal mitoxantrone accumulation at 10 uM relative control; set-up: scale not given: the % may be the effect or the level left; details: hek293, 10 µM
# T2 sequence (Q9UNQ0 whole entry): T1 sequence (Q9UNQ0 whole entry)
# [2] = target: T2, Broad substrate specificity ATP-binding cassette transporter ABCG2; assay: Inhibition of BCRP expressed in human HEK293 cells assessed as maximal mitoxantrone accumulation at 5 uM relative control; set-up: scale not given: the % may be the effect or the level left; details: hek293, 5 µM
# [3] = target: T2, Broad substrate specificity ATP-binding cassette transporter ABCG2; assay: Inhibition of BCRP expressed in human HEK293 cells assessed as maximal mitoxantrone accumulation
structure (smiles),measurement,setting,value
COc1cc2oc3c(c(=O)c2c(O)c1C)-c1cccc(O)c1OC3O (stereo not drawn) [9-O-METHYL-4-HYDROXYBOERAVINONE B],Emax at 20 µM,BCRP (ABCG2),15%
COC1Oc2ccccc2-c2c1oc1cc(O)c(C)c(O)c1c2=O (stereo not drawn) [BOERAVINONE A],Activity,[1],27%
Cc1c(O)cc2oc3c(c(=O)c2c1O)-c1ccccc1OC3O (stereo not drawn) [BOERAVINONE B],Activity,[1],55%
COc1cc2c(c(O)c1C)C(=O)[C@]1(O)c3cccc(O)c3OC[C@H]1O2 [BOERAVINONE C],Activity,[1],31%
Cc1c(O)cc2oc3c(c(=O)c2c1O)-c1ccc(O)cc1OC3O (stereo not drawn) [BOERAVINONE E],Activity,[1],56%
COc1cc(O)c2c(=O)c3c(oc2c1)C(OC)Oc1c(O)cccc1-3 (stereo not drawn) [BOERAVINONE G],Activity,[2],92%
same,IC50,[3],700 nM
COc1cc2oc3c(c(=O)c2c(O)c1C)-c1cccc(O)c1OC3OC (stereo not drawn) [BOERAVINONE H],Activity,[2],68%
same,IC50,[3],2500 nM
COc1c(C)c(O)c2c(=O)c3c(oc2c1O)C(O)Oc1ccccc1-3 (stereo not drawn) [BOERAVINONE I],Emax at 20 µM,BCRP (ABCG2),12%
Cc1c(O)cc2oc3oc4cc(O)ccc4c3c(=O)c2c1O [BOERAVINONE J],Emax at 20 µM,BCRP (ABCG2),15%
O=c1c2c(oc3cc(O)cc(O)c13)C(O)Oc1ccccc1-2 (stereo not drawn) [COCCINEONE B],Activity,[1],29%
COc1cc2c(c(O)c1OC)C(=O)[C@]1(O)c3ccccc3OC[C@H]1O2 [COCCINEONE E],Activity,[1],15%
